Measured values from patent US20110059909A1, “METHODS FOR TREATING INFLAMMATORY DISORDERS” (priority 2004, published 2011).

What was measured:
rat primary astrocytes [1] = experiment: Assay for NO production (nitrite, Griess reagent) in LPS/IFNγ-stimulated primary astrocytes; assay type: cell-based; conditions: for Reversal of PDMP-mediated inhibition of LPS/IFNγ-induced NO production: PDMP 50 μM plus exogenous glycosphingolipid 5 and 10 μM, 0.5 h before LPS/IFNγ; for LPS/IFNγ-induced NO production: primary astrocytes, LPS/IFNγ (1 μg/ml; 10 U/ml), NO at 24 h
Protocol: (§1) Primary astrocyte-enriched cultures were prepared from the whole cortex of one day old Sprague-Dawley rats as described earlier (Pahan et al., 1998b). Briefly, the cortex was rapidly dissected in ice-cold calcium/magnesium free Hanks Balanced Salt Solution (HBSS) (Gibco, Grand Island, N.Y.) at pH 7.4 as described previously (Won et al., 2001). The tissue was then minced, incubated in HBSS containing trypsin (2 mg/ml) for 20 min and washed twice in plating medium containing 10% FBS and 10 μg/ml gentamicin, and then disrupted by triturating through a Pasteur pipette following which cells were seeded in 75-cm^2 culture flasks (Falcon, Franklin, N.J.). After incubation at 37° C. in 5% CO2 for 1 day, the medium was completely changed to the culture medium (DMEM containing 5% FBS and 10 μg/ml gentamicin). The cultures received half exchanges with fresh medium twice a week. After 14-15 days the cells were shaken for at least 24 h on an orbital shaker to remove the microglia and then seeded on multi-well tissue culture dishes. The cells were incubated with serum-free DMEM for 24 h prior to the incubation with drugs.
Cells were cultured in 12-well plastic tissue culture plates. Following appropriate treatment, production of NO was determined by an assay of the culture supernatant for nitrite (Green et al., 1982). Briefly, 100 μl of culture supernatant was allowed to react with 100 μl of Griess reagent. The optical density of the assay samples was measured spectrophotometrically at 570 nm. Nitrite concentrations were calculated from a standard curve derived from the reaction of NaNO2 in fresh media.

rat primary astrocytes [2] = experiment: BrdU incorporation assay, proliferation of primary astrocytes; assay type: cell-based; conditions: for Proliferation of astrocytes induced by the substance itself: increasing doses (1, 5 and 10 μM for GSL), 18 h
Protocol: as §1
Proliferation of primary astrocytes was assayed by using the Cell proliferation ELISA, BrdU colorimetric assay kit (Roche, Germany) according to manufacturer's protocol. Briefly, cells were seeded in 96 well plates in quadruplicate and following overnight serum starvation were stimulated with mitogenic stimulants. 2 h before termination of proliferation assay, BrdU (10 μM) was added to each well following which cells were fixed and levels of incorporated BrdU were assayed by using a conjugated anti-BrdU enzyme. Colorimetric analysis was done by measuring absorbance at 370 nm using a spectramax MAX 190 (Molecular devices) multi-well plate reading spectrophotometer.

small GTPase Ras = experiment: Quantification of Ras activation (GST-Raf-1 RBD pull-down) in primary astrocytes; assay type: cell-based, rat; conditions: for LacCer-mediated Ras activation: NAC 10 mM or PDTC 100 μM 1 h, LacCer 5 min
Protocol: After stimulation, primary astrocytes in 6-well plates were washed with ice cold PBS and lysed in membrane lysis buffer (MLB; 0.5 ml of 25 mM HEPES, pH 7.5, 150 mM NaCl, 1% Igepal CA-630, 0.25% sodium deoxycholate, 10% glycerol, 10 mM MgCl2, 1 mM EDTA, 25 mM NaF, 1 mM of sodium orthovanadate, and EDTA free Complete™ protease inhibitor cocktail). After centrifugation (5,000×g) at 4° C. for 5 min, supernatant was used for Ras activation assay. One hundred μg of supernatant was used for binding with agarose conjugated Ras-binding domain (RBD) of Raf-1 which was expressed in BL21 (Invitrogen), Escherichia coli strain, transformed by pGEX-2T-GST-RBD in the presence of 0.1 mM of IPTG as described previously (Herrmann et al., 1995). The binding reaction was performed at 4° C. for 30 min in MLB. Following washing with MLB three times, Ras-RBD complex were denatured by adding of 2×SDS sample buffer. Ras protein was identified by western blot analysis with Ras antibodies from Upstate Biotechnology.

iNOS = iNOS mRNA (RT-PCR) and protein (immunoblot) in LPS/IFNγ-stimulated primary astrocytes; assay type: cell-based, rat; conditions: primary astrocytes; LPS/IFNγ (1 μg/ml; 10 U/ml); mRNA 6 h, protein 24 h
Protocol: as §1
(§2) For iNOS protein, the cells were washed with cold Tris buffered saline (TBS; 20 mM Trizma base, and 137 mM NaCl, pH 7.5), lysed in 1×SDS sample loading buffer (62.5 mM Trizma base, 2% w/v SDS, 10% glycerol), following sonication and centrifugation at 15,000×g for 5 min, the supernatant was used for the iNOS western immunoblot assay. The protein concentration of samples was determined with the detergent compatible protein assay reagent (Bio-Rad Laboratories, CA) using bovine serum albumin (BSA) as the standard. Sample was boiled for 3 min with 0.1 volumes of 10% β-mercaptoethanol and 0.5% bromophenol blue mix. Fifty μg of total cellular protein was resolved by electrophoresis on 8 or 12% polyacrylamide gels, electro-transferred to polyvinylidene difluoride (PVDF) filter and blocked with Tween 20 containing Tris-buffered saline (TBST; 10 mM Trizma base-pH 7.4, 1% Tween 20, and 150 mM NaCl) with 5% skim milk. After incubation with antiserum against iNOS (BD PharMingen, CA), rat GalT-2 (Abjent Inc., CA), H-Ras (Upstate Biotechnology, CA), GFAP (Santa Cruz Biotech, CA), or phospho-specific ERK1/2 (Cell signaling Tech Inc., MA), or pIκ-B (Signal Transduction), in PVDF buffer for 2 h at room temperature, the filters were washed 3 times with TBST buffer and then incubated with horseradish peroxidase conjugated anti-rabbit or mouse IgG for 1 h. The membranes were detected by autoradiography using ECL-plus (Amersham Pharmacia Biotech) after washing with TBST buffer.
5 μg total RNA was treated with 2 U DNAse I (bovine pancreas, Sigma) for 15 min at room temperature in 18 μl volume containing 1×PCR buffer and 2 mM MgCl2. It was then inactivated by incubation with 2 μl of 25 mM EDTA at 65° C. for 15 min. 2 μl of random primers were added and annealed to the RNA according to the manufacturer's protocol. cDNA was synthesized in a 50 μl reaction containing 5 μg of total RNA and 50-100 U reverse transcriptase by incubating the tubes at 42° C. for 60 min. PCR amplification was conducted in 25 μl of reaction mixture with 1.0 μl of cDNA, […] of each primer and under the manufacturer's Taq polymerase conditions (Takara, Takara Shuzo Co. Ltd, Japan). The sequence of primers used for PCR amplification are as follows; iNOS, (Forward-5′ […] 3′, SEQ ID NO:3; Reverse-5′ […] 3′, SEQ ID NO:4), GalT-2 (Forward-5′ tggtacaagctagaggc 3′, SEQ ID NO:5; Reverse-5′ gcatggcacattgaa C-3′, SEQ ID NO:6), GAPDH (Forward-5′ […] 3′, SEQ ID NO:7; Reverse-5′ cttcacgaagttgtcattgagggca3′, SEQ ID NO:8), TNFα (Forward-5′ […] g-3′, SEQ ID NO:9; Reverse-5′[…]-3′, SEQ ID NO:10) and IL-1β (Forward-5′[…]-3′, SEQ ID NO:11; reverse-5′[…]-3′, SEQ ID NO:12).

[3] = cited from earlier work
PI-3K = experiment: PI-3 kinase activity assay; assay type: cell-based, rat; conditions: exogenous lipid
Protocol: Cells after stimulation in serum-free DMEM/F-12 were lysed with ice-cold lysis buffer containing 1% (vol/vol) NP-40,100 mM NaCl, 20 mM Tris (pH 7.4), 10 mM iodoacetamide, 10 mM NaF, 1 mM sodium orthovanadate, 1 mM […], 1 μg/ml leupeptin, 1 μg/ml antipain, 1 mg/ml aprotinin, and 1 μg/ml pepstatin A. Lysates were incubated at 4° C. for 15 min, followed by centrifugation at 13,000 g for 15 min. The supernatant was pre-cleared with protein G-Sepharose beads (Pharmacia Biotech) for 1 h at 4° C. followed by the addition of 1 μg/ml p85α monoclonal antibody. After 2 h of incubation at 4° C., protein G-Sepharose beads were added and the resulting mixture was further incubated for 1 h at 4° C. The immunoprecipitates were washed twice with lysis buffer, once with phosphate-buffered saline (PBS), once with 0.5 M LiCl and 100 mM Tris (pH 7.6), once in water, and once in kinase buffer (5 mM MgCl2, 0.25 mM EDTA, 20 mM HEPES, pH 7.4). PI-3kinase activity was determined as already described (Ward et al., 1992; Pahan et al., 1999) using a lipid mixture of 100 μl of 0.1 mg/ml PI and 0.1 mg/ml phosphatidylserine dispersed by sonication in 20 mM HEPES (pH 7.0) and 1 mM EDTA. The reaction was initiated by the addition of 20 of [γ-32P] […]

GFAP = GFAP mRNA (real time PCR) and protein (immunoblot) in TNFα-stimulated primary astrocytes; assay type: cell-based, rat
Protocol: as §2

ERK1/2 = ERK1/2 activation (phospho-ERK1/2 immunoblot) in primary astrocytes; assay type: cell-based, rat; conditions: pretreated 0.5 h, TNFα 20 min
Protocol: as §2

Compound: Glucosylceramide [GluCer]
- Reversal of PDMP-mediated inhibition of LPS/IFNγ-induced NO production (rat primary astrocytes [1]): did not reverse
- Proliferation of astrocytes induced by the substance itself (rat primary astrocytes [2]; BrdU incorporation): did not have a similar effect

Compound: CC(=O)N[C@@H](CS)C(=O)O [NAC, N-Acetyl cysteine]
- LPS/IFNγ-induced NO production (rat primary astrocytes [1]): blocked
- LacCer-mediated Ras activation (small GTPase Ras): inhibited
- LPS/IFNγ-induced iNOS mRNA and protein levels (iNOS): blocked

Compound: CCCCN1CC(O)C(O)C(O)C1CO [Miglustat, 1,5-(butylimino)-1,5-dideoxy-D-glucitol]
- Solubility in water [3]: soluble in water

Compound: S=C(S)N1CCCC1 [PDTC, pyrrolidine dithiocarbamate]
- LPS/IFNγ-induced NO production (rat primary astrocytes [1]): blocked
- LacCer-mediated Ras activation (small GTPase Ras): inhibited
- LPS/IFNγ-induced iNOS mRNA and protein levels (iNOS): blocked

Compound: CCCCCCCCCCCCC/C=C/[C@@H](O)[C@@H](N)COP(=O)(O)O [S1P, sphingosine-1-phosphate]
- Reversal of DMS-mediated inhibition of Ras activation (small GTPase Ras; exogenous lipid): reverses
- Reversal of PDMP-mediated inhibition of TNFα-induced proliferation (rat primary astrocytes [2]; PDMP 25 μM plus exogenous lipid): could not be reversed
- Reversal of DMS-mediated inhibition of TNFα-induced proliferation (rat primary astrocytes [2]; exogenous lipid): reversed
- Reversal of PD98059-mediated inhibition of TNFα-induced proliferation (rat primary astrocytes [2]; exogenous lipid): could not be reversed
- Proliferation of astrocytes induced by the substance itself (rat primary astrocytes [2]; BrdU incorporation): induced astrocyte proliferation
- Reversal of DMS-mediated inhibition of PI-3K activation (PI-3K): able to reverse
- Reversal of DMS-mediated inhibition of TNFα-induced GFAP expression (GFAP; exogenous lipid): reversed

Compound: galactosylceramide [GalCer]
- Reversal of PDMP-mediated inhibition of LPS/IFNγ-induced NO production (rat primary astrocytes [1]): did not reverse
- Proliferation of astrocytes induced by the substance itself (rat primary astrocytes [2]; BrdU incorporation): neither induced proliferation

Compound: COc1cccc(-c2cc(=O)c3ccccc3o2)c1N [PD98059]
- LPS/IFNγ-induced NO production (rat primary astrocytes [1]): inhibition
- TNFα-induced astrocyte proliferation (rat primary astrocytes [2]; pretreated 0.5 h (AS: 48 h after transfection), TNFα 1 ng/ml 18 h, BrdU incorporation): inhibited
- TNFα-induced ERK1/2 phosphorylation (ERK1/2): inhibited
- TNFα-induced GFAP mRNA and protein expression (GFAP; TNFα 1 ng/ml, mRNA 8 h, protein 18 h): inhibited
- LPS/IFNγ-induced iNOS mRNA and protein levels (iNOS): inhibition
